Earlier results as cited in patent publication US9149493B2, “Compositions for bowel cleansing and use thereof” (ALFA WASSERMANN SPA, priority 2011, dated 2015).

Conditions: administered alone; eliminated unchanged in urine

## citric acid and sodium citrate [citrates]
  absorption of citrates in the small intestine: almost entirely absorbed
